Patent US11325937B2, “Glycoside compound and preparation method therefor, composition, application, and intermediate” (SHANGHAI HUTCHISON PHARMACEUTICALS LIMITED, priority 2018, dated 2022)

Columns and labels:
[1] = tested on: rats with permanent ligation of bilateral common carotid arteries (2VO); assay: Chronic cerebral ischemia model in rats with permanent ligation of bilateral common carotid arteries (2VO); format: in vivo
From the text: After obtaining the active molecules that can promote the expression of VEGF-A mRNA in the animal model of inflammatory angiogenesis, a rat model of cerebral infarction was used for further verification. Following the method as described in Longa, E. Z., Longa, E. Z., Weinstein, P. R., Carlson, S. & Commin, R. Reversible middle cerebral artery occlusion without craniectomy in rats. [J]. Stroke, 1989. 1: 84-91, an acute cerebral infarction model was established in rats with middle cerebral artery occlusion (MCAO); and following the method as described in C. dela Torre, T. Fortin, G. A. S. Park, K. S. Butler, P. Kozlowski, B. A. Pappas, H. de Socarraz, J. K. Saunders and M. T. Richard. [J]. Brain Research, 1992. 582:186-195, a chronic cerebral ischemia model was established in rats with permanent ligation of bilateral common carotid arteries (2VO). The inhibition on cerebral infarction and neuroprotection for brain injury of the active molecules screened in Effect Example 2 were verified.
In the later period of the present invention, a chronic cerebral ischemia model was established in rats with permanent ligation of bilateral common carotid arteries (2VO). TG-028 (5 mg/kg) was administered to 5 rats in each group daily by intraperitoneal injection for 3 weeks. The effects of TG-028 and the control drug Edaravone (40 mg/kg) in the rat model of chronic cerebral ischemia were observed.
3 weeks after the establishment of the rat model of 2VO chronic cerebral ischemia, the Morris water maze experiment was performed on the test rats to determine the effects of drugs on animal learning and memory. The test rats were subjected to ambient positioning and memory training for 5 days. On Day 5 of the training, a positioning navigation experiment was carried out, and the duration for each group of rats from the time of entering the water from different water entry points facing the pool wall to the time of finding the platform, that is, the escape incubation period, was recorded. On Day 6, the platform was removed and a space exploration experiment was carried out. The swimming time of the rats in the target quadrant, the dwell time in the target quadrant, the distance in the target quadrant, and the number of passes through the platform were recorded in 120 s from the time of entering water from a quadrant opposing the target quadrant. The results of the water maze positioning and navigation experiment are shown in FIG. 8 (where Sham is a sham operation group).
After permanent ligation of the bilateral common carotid arteries, a 5-day positioning training was carried out, and […] Morris water maze space exploration experiment was performed after the training.

[2] = tested on: HUVEC-12 endothelial cells; assay: Migration of HUVEC-12 endothelial cells (scratch test); format: cell-based, Human
Procedure: The experiment included seven groups. In Group 1, HUVEC-12 endothelial cells (purchased from Shanghai RongChuang Biotech Co., Ltd.) were treated directly with simple DMEM medium (Gibcol, Shanghai) containing 10% FBS (SERANA, Germany) (control). In Group 2, the endothelial cells were treated with the supernatant obtained 24 h after macrophages were cultured with DMEM medium containing 10% FBS (s-control). In Group 3, the endothelial cells cultured with DMEM medium containing 10% FBS were treated directly with TG-028 (TG-028, 10 μM). In Group 4, the endothelial cells were treated with the supernatant obtained after macrophages cultured with DMEM medium containing 10% FBS were treated and co-incubated with TG-028 for 24 h (s-TG-028, […]). In Group 5, the endothelial cells cultured with DMEM medium containing 10% FBS were treated directly with Cpd-18 (Salvianolate) (cpd-18, 10 μM). In Group 6, the endothelial cells were treated with the supernatant obtained after macrophages cultured with DMEM medium containing 10% FBS were treated and co-incubated with Cpd-18 (Salvianolate, 10 μM) for 24 h (s-cpd18). In Group 7, the endothelial cells cultured with DMEM medium containing 10% FBS were treated directly with VEGFD (Recombinant Human VEGF165, 10 ng/mL).
Human umbilical vein endothelial cells HUVEC-12 in logarithmic growth phase were counted, adjusted to a cell density of 5×10^5 cells/mL, and inoculated in 1 mL per well in a 6-well plate. The cells were conventionally cultured in an incubator to form monolayer cells of 90% confluency. The 6-well plate fully plated with cells was scratched perpendicular to the cell surface with a 200 μL pipette tip from one end to the other end of the well. The scratches were made transversely with the pipette tip being as perpendicular as possible to the bottom of the plate. […]
The medium was aspirated and the cells scratched off were washed off with PBS. […] The migration of endothelial cells was detected according to the cell scratch method and the relative migration rate was calculated. […]

SMILES: COc1ccc(CCCCO[C@@H]2O[C@H](CO)[C@@H](O)[C@H](O)[C@H]2O)cc1 [TG-028]
- HE staining and Nissl staining of brain sections, hippocampal CA3 neurons (in words) ([1]; 3 weeks after chronic cerebral ischemia, compared with 2VO+NaCl, FIG. 10): neatly and densely arranged
- Morris water maze positioning and navigation: escape incubation period and total distance (in words) ([1]; TG-028 5 mg/kg, Edaravone 40 mg/kg, 3 weeks of administration, FIG. 8): comparable effect
- Morris water maze space exploration: number of passes through the platform compared with 2VO+NaCl group ([1]; TG-028 5 mg/kg, Edaravone 40 mg/kg, 3 weeks, FIG. 9): increases significantly
- change in body weight compared with sham operation group (in words) ([1]; TG-028 5 mg/kg, Edaravone 40 mg/kg, i.p. daily, after 1 week, FIG. 7): no difference in weight change between the treatment group with TG-028 and the sham operation group
- effect on migration of endothelial cells (in words) ([2]; HUVEC-12 treated with supernatant of macrophages co-incubated 24 h with compound, 10 μM (s- groups)): comparable effect on the migration of endothelial cells as VEGF
- effect on migration of endothelial cells (in words) ([2]; direct treatment of HUVEC-12, 24 h, compounds 10 μM, VEGF165 10 ng/mL, vs control medium): significant effect on the migration of endothelial cells
